pIC50: −log10 of the molar value.
Key:
Kuramochi cells = assay: Synthetic Lethality Assay of Cancer Cell; type: cell-based; conditions: Homo sapiens; growth inhibition of Kuramochi cells in the presence of methyl methanesulfonate (MMS), 96 hours, CellTiter-Glo
Method: In order to evaluate the cancer cell growth inhibitory effect of the present compound, the inhibitory effect of the compound on the growth of a human ovarian cancer cell line, Kuramochi cells, was examined in the presence of methyl methanesulfonate (MMS) which is used as a DNA methylating agent.
Test compound was dissolved in dimethyl sulfoxide and prepared a 10 mM compound solution. The compound solution was then further serially diluted with dimethyl sulfoxide to prepare a concentration of 400 times test compound solution from 6 mM to 1 μM.
Kuramochi cells were purchased from the JCRB cell bank and cultured at 37° C. in the presence of 5% of CO2 using the complete medium described above. […]
Cell viability after 96 hours was measured by using CellTiter-Glo (registered trademark) Luminescent Cell Viability Assay (manufactured by Promega Corporation) according to the recommended usage.
The luminescence intensity was measured by using a luminescence detection plate reader (Envision, manufactured by PerkinElmer Inc.). The cell viability of each well was calculated as a relative value (%) of the luminescence intensity of each well to which each test compound with each concentration was added in a case where the luminescence intensity of a well to which dimethyl sulfoxide was added instead of the test compound was defined as 100%. […]

human recombinant PARG = human recombinant PARG (Homo sapiens (Human), UniProt Q86W56); assay: PARG Activity Assay; type: biochemical; conditions: recombinant human PARG 0.0185 nM, 1 hour pre-incubation, poly (ADP-ribose) substrate-coated plate, Abs 450
Method: In order to evaluate the PARG inhibitory activity of the present compound, the inhibitory activity of each test compound against human recombinant PARG was measured. The specific procedure is described below.
Test compound was dissolved in dimethyl sulfoxide and prepared a 10 mM stock solution.
PARG Activity Assay was performed in Streptavidin-coated 96-well plates. […] The substrate solution was added to the 96-well plate at the volume of 200 micro liter per well and incubated for 3 hours at room temperature. After the incubation, the substrate solution was discarded and assay plate was washed 4 times with 220 micro liter of PBS containing 0.1% Tween20 (PBST). […] The diluted enzyme solution was pre-incubated with compounds for 1 hour at room temperature in a 96-well plate and transferred 100 micro liter per well to the poly (ADP-ribose) substrate-coated assay plate. The plate was incubated for 1 hour at 25° C. and then washed 4 times with 220 micro liters of PBST. For the detection of non-digested poly (ADP-ribose) polymer on the plate, mouse anti-poly (ADP-ribose) antibody diluted with 0.2% BSA containing PBS was added 100 micro liters per well and incubated 1 hour at room temperature. Plate was washed 4 times with TBST and 100 micro liter of HRP-labeled anti-mouse Ig antibody was added to the wells. Plate was incubated for 30 minutes at room temperature and then washed 4 times with PBST. For the detection 100 micro liters of TMB substrate solution was added to the wells. After sufficient color development, reaction was stopped by addition of 50 micro liter of 0.2 M […]. The 450 nm absorbance (Abs 450) of each well was read with a micro plate reader. The assay was performed by duplicated and average of 2 independent assays were used for the determination of PARG inhibitor y activity.
Wells treated with dimethyl sulfoxide instead of test compound solution were designated as a Negative Control of assay
Wells treated with 0.2% BSA containing PBS instead of recombinant human PARG protein and with dimethyl sulfoxide instead of test compound solution were designated as a Positive Control of assay.
The PARG Inhibitory Activity (%) was determined by the following formulation.
PARG Inhibitory Activity (%)=[(AbsX−AbsA)/(AbsB−AbsA)]×100
(wherein, • AbsA is absorbance (Abs 450) of Negative Control wells • AbsB is absorbance (Abs 450) of Positive Control wells • AbsX is absorbance (Abs 450) of wells treated with test compound.)
In Table, Ex indicates an Example number shown below.

Sequence of human recombinant PARG (Q86W56 whole entry): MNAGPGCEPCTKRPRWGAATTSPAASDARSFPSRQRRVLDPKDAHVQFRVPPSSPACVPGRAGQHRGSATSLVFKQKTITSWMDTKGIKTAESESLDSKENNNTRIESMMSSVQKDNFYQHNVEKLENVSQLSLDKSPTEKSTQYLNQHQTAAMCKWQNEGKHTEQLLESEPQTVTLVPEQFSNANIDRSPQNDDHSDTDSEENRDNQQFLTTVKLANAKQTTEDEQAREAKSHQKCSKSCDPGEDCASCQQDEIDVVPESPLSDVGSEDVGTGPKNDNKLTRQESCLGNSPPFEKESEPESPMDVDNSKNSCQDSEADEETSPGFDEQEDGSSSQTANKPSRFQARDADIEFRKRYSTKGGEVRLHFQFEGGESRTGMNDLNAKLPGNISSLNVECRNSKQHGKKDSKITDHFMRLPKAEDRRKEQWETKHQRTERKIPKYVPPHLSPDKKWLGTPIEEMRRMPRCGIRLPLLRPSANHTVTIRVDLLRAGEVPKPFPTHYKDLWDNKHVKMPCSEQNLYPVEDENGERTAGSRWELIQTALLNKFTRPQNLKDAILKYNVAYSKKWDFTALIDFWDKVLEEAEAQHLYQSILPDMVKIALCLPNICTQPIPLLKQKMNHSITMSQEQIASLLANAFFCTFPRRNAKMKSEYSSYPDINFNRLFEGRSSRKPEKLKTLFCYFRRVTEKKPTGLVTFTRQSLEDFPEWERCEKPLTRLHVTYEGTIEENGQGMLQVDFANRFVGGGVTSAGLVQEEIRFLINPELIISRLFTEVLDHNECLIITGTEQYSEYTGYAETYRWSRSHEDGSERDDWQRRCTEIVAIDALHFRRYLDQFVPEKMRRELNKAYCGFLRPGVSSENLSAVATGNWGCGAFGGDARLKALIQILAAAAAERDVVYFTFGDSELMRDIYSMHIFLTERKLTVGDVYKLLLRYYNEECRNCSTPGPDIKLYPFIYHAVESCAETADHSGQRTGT

SMILES | pIC50 (Kuramochi cells) | pIC50 (human recombinant PARG)
Cn1cc(Cn2c(=O)c3cc(S(=O)(=O)NC4(C)CC4)sc3n(Cc3ccc4c(c3)CC(=O)N4)c2=O)cn1 [Ex 130, 3-((1-Methyl-1H-pyrazol-4-yl)methyl)-N-(1-methylcyclopropyl)-2,4-dioxo-1-((2-oxoindolin-5-yl)methyl)-1,2,3,4-tetrahydrothieno[2,3-d]pyrimidine-6-sulfonamide] | 4.93 | –
Cc1cc(Cn2c(=O)n(Cc3cnn(C)c3)c(=O)c3cc(S(=O)(=O)NC4(C)CC4)sc32)[nH]n1 [Ex 31] | – | 7.54
Cc1ncc(Cn2c(=O)c3cc(S(=O)(=O)NC4(C)CC4)sc3n(CCCN)c2=O)s1 [Ex 9] | – | 5.97
Cn1cc(Cn2c(=O)c3cc(S(=O)(=O)NC4(C)CC4)sc3n(Cc3ccc4[nH]c(=O)oc4c3)c2=O)cn1 [Ex 39] | – | 7.68
Cc1cc2c(cc1Cn1c(=O)n(Cc3cnn(C)c3)c(=O)c3cc(S(=O)(=O)NC4(C)CC4)sc31)COC2 [Ex 113] | – | 7.03
Cn1cc(Cn2c(=O)c3cc(S(=O)(=O)NC4(C)CC4)sc3n(Cc3cncnc3)c2=O)cn1 [Ex 34] | – | 6.52
Cn1cc(Cn2c(=O)c3cc(S(=O)(=O)NC4(C)CC4)sc3n(Cc3ccc(N4CCOCC4)nc3)c2=O)cn1 [Ex 81] | – | 6.70
Cn1cc(Cn2c(=O)c3cc(S(=O)(=O)NC4(C)CC4)sc3n(Cc3ccc(N4CCCC4)nc3)c2=O)cn1 [Ex 82] | – | 7.01
Cn1cc(Cn2c(=O)c3cc(S(=O)(=O)NC4(C)CC4)sc3n(Cc3cc4c(cn3)COC4)c2=O)cn1 [Ex 41] | – | 7.01
Cc1ncc(Cn2c(=O)c3cc(S(=O)(=O)NC4(C)CC4)sc3n(Cc3ccc4cn[nH]c4c3)c2=O)s1 [Ex 5] | – | 7.92
Cn1cc(Cn2c(=O)c3cc(S(=O)(=O)NC4(C#N)CC4)sc3n(Cc3ccc(F)cc3)c2=O)cn1 [Ex 103] | – | 6.96
Cn1cc(Cn2c(=O)c3cc(S(=O)(=O)NC4(C)CC4)sc3n(CCC3(C)COC3)c2=O)cn1 [Ex 120] | – | 6.92
Cn1cc(Cn2c(=O)c3cc(S(=O)(=O)NC4(C)CC4)sc3n(Cc3ccc(OC4CCC4)cc3)c2=O)cn1 [Ex 69] | – | 6.55
Cc1cc(Cn2c(=O)n(Cc3cnc(C)s3)c(=O)c3cc(S(=O)(=O)NC4(C)CC4)sc32)n(C)n1 [Ex 3] | – | 7.54
CN(CCO)c1ccc(Cn2c(=O)n(Cc3cnn(C)c3)c(=O)c3cc(S(=O)(=O)NC4(C)CC4)sc32)cc1F [Ex 76] | – | 7.24
Cn1cc(Cn2c(=O)c3cc(S(=O)(=O)NC4(C)CC4)sc3n(Cc3cncc(CO)c3)c2=O)cn1 [Ex 117] | – | 7.39
CCN(C)c1ccc(Cn2c(=O)n(Cc3cnn(C)c3)c(=O)c3cc(S(=O)(=O)NC4(C)CC4)sc32)cc1F [Ex 72] | – | 6.72
Cn1cc(Cn2c(=O)c3cc(S(=O)(=O)NC4(C)CC4)sc3n(Cc3ccc(F)c(C(=O)N4CCN(C(=O)C5CC5)CC4)c3)c2=O)cn1 [Ex 127] | – | 6.49
Cn1cc(Cn2c(=O)c3cc(S(=O)(=O)NC4(C)CC4)sc3n(Cc3ccc4c(c3)CNC4)c2=O)cn1 [Ex 66] | – | 7.34
Cn1cc(Cn2c(=O)c3cc(S(=O)(=O)NC4(C)CC4)sc3n(Cc3ccc(F)c(OCCO)c3)c2=O)cn1 [Ex 122] | – | 7.77
CN(c1ccc(Cn2c(=O)n(Cc3cnn(C)c3)c(=O)c3cc(S(=O)(=O)NC4(C)CC4)sc32)cc1F)C1CC1 [Ex 74] | – | 6.68
Cn1cc(Cn2c(=O)c3cc(S(=O)(=O)NC4(C)CC4)sc3n(Cc3ccc(C#N)cc3)c2=O)cn1 [Ex 53] | – | 7.28
COc1cc(Cn2c(=O)n(Cc3cnn(C)c3)c(=O)c3cc(S(=O)(=O)NC4(C)CC4)sc32)ccn1 [Ex 43] | – | 7.54
Cc1c(Cn2c(=O)n(Cc3cnn(C)c3)c(=O)c3cc(S(=O)(=O)NC4(C)CC4)sc32)ccc2c1COC2 [Ex 115] | – | 7.17
Cn1cc(Cn2c(=O)c3cc(S(=O)(=O)NC4(C)CC4)sc3n(Cc3cnc(C#N)s3)c2=O)cn1 [Ex 35] | – | 7.46

SMILES | pIC50 (Kuramochi cells) | pIC50 (human recombinant PARG)
Cc1ncc(Cn2c(=O)c3cc(S(=O)(=O)NC4(C)CC4)sc3n(CC3CCOCC3)c2=O)s1 [Ex 14] | – | 6.49
Cn1cc(Cn2c(=O)c3cc(S(=O)(=O)NC4(C)CC4)sc3n(Cc3ccc(C4CC4)cc3)c2=O)cn1 [Ex 49] | – | 7.02
Cc1ncc(Cn2c(=O)c3cc(S(=O)(=O)NC4(C)CC4)sc3n(Cc3ccc4cc[nH]c4c3)c2=O)s1 [Ex 11] | – | 6.80
Cc1ncc(Cn2c(=O)c3cc(S(=O)(=O)NC4(C)CC4)sc3n(CC3CCCOC3)c2=O)s1 (centres unmarked) [Ex 17] | – | 6.33
CNc1ccc(Cn2c(=O)n(Cc3cnn(C)c3)c(=O)c3cc(S(=O)(=O)NC4(C)CC4)sc32)cc1F [Ex 73] | – | 7.77
Cc1ncc(Cn2c(=O)c3cc(S(=O)(=O)NC4CC4)sc3n(CC3CC3)c2=O)s1 [Ex 24] | – | 5.65
Cc1ncc(Cn2c(=O)c3cc(S(=O)(=O)NC4(C)CC4)sc3n(Cc3ccc4[nH]ncc4c3)c2=O)s1 [Ex 4] | – | 7.96
Cn1cc(Cn2c(=O)c3cc(S(=O)(=O)NC4(C)CC4)sc3n(Cc3cnn(CC(F)F)c3)c2=O)cn1 [Ex 56] | – | 7.44
COc1ccc(Cn2c(=O)n(Cc3cnn(C)c3)c(=O)c3cc(S(=O)(=O)NC4(C)CC4)sc32)cn1 [Ex 44] | – | 7.32
Cc1cc(Cn2c(=O)n(Cc3cnn(C)c3)c(=O)c3cc(S(=O)(=O)NC4(C)CC4)sc32)cc2c1COC2 [Ex 114] | – | 7.47
CN(C)c1ccc(Cn2c(=O)n(Cc3cnn(C)c3)c(=O)c3cc(S(=O)(=O)NC4(C)CC4)sc32)cc1F [Ex 71] | – | 6.92
CNc1c(F)cc(Cn2c(=O)n(Cc3cnn(C)c3)c(=O)c3cc(S(=O)(=O)NC4(C)CC4)sc32)cc1F [Ex 125] | – | 7.70
Cc1c[nH]c(Cn2c(=O)n(Cc3cnn(C)c3)c(=O)c3cc(S(=O)(=O)NC4(C)CC4)sc32)c(C)c1=O [Ex 134] | – | 5.22
Cn1cc(Cn2c(=O)c3cc(S(=O)(=O)NC4(C)CC4)sc3n(Cc3ccc4c(n3)COC4)c2=O)cn1 [Ex 109] | – | 7.35
CN1Cc2cc(Cn3c(=O)n(Cc4cnn(C)c4)c(=O)c4cc(S(=O)(=O)NC5(C)CC5)sc43)ccc2C1=O [Ex 45] | – | 7.89
Cn1cc(Cn2c(=O)c3cc(S(=O)(=O)NC4(C)CC4)sc3n(Cc3ccn(C)c(=O)c3)c2=O)cn1 [Ex 85] | – | 6.96
CNc1ncc(Cn2c(=O)n(Cc3cnn(C)c3)c(=O)c3cc(S(=O)(=O)NC4(C)CC4)sc32)cn1 [Ex 54] | – | 7.31
CC(c1ccc2c(c1)COC2)n1c(=O)n(Cc2cnn(C)c2)c(=O)c2cc(S(=O)(=O)NC3(C)CC3)sc21 (centres unmarked) [Ex 112] | – | 6.85
Cn1cc(Cn2c(=O)c3cc(S(=O)(=O)NC4(C)CC4)sc3n(Cc3ccc4c(c3)CCO4)c2=O)cn1 [Ex 59] | – | 7.66
Cc1ncc(Cn2c(=O)c3cc(S(=O)(=O)NC4(C)CC4)sc3n(Cc3cnc4[nH]ccc4c3)c2=O)s1 [Ex 10] | – | 7.80
Cn1cc(Cn2c(=O)c3cc(S(=O)(=O)NC4(C)CC4)sc3n(Cc3ccc4c(c3)C(=O)NC4)c2=O)cn1 [Ex 61] | – | 7.96
Cn1cc(Cn2c(=O)c3cc(S(=O)(=O)NC4(C#N)CC4)sc3n(Cc3ccc4oc(CO)cc4c3)c2=O)cn1 [Ex 102] | – | 7.12
CC#CCn1c(=O)n(Cc2cnn(C)c2)c(=O)c2cc(S(=O)(=O)NC3(C)CC3)sc21 [Ex 27] | – | 6.60
CCNS(=O)(=O)c1cc2c(=O)n(Cc3cnc(C)s3)c(=O)n(CC3CC3)c2s1 [Ex 21] | – | 4.12
Cc1ncc(Cn2c(=O)c3cc(S(=O)(=O)NC4(C)CC4)sc3n(CC3CCCO3)c2=O)s1 (centres unmarked) [Ex 15] | – | 6.22

Reference: patent publication US20240083908A1, “TETRAHYDROTHIENOPYRIMIDINESULFONAMIDE COMPOUNDS” (priority 2020, published 2024)
